Measured values reported in the NIST ThermoML archive (doi:10.1016/j.jct.2013.05.024).

Details: 101.3 kPa, Liquid, Vibrating tube method

CCOC(=O)C(=O)OCC [diethyl ethanedioate]
Details	mass density [kg/m3]
278.15 K	1095.94
288.14 K	1084.24
298.15 K	1072.53
313.15 K	1054.92
328.15 K	1037.26
338.15 K	1025.42
348.15 K	1013.53
358.15 K	1001.6
